From PubChem BioAssay (NCI)
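Assay format: 96-well plates, 48-hour exposure. GI50 is the concentration that inhibits growth by half. The concentration for full growth arrest is given as TGI.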

Experiments:
Test in all cases: growth of human tumour cells (NCI), 48 h
[1] = system: A498 renal
[2] = system: A549 NSCLC
[3] = system: BT-549 breast
[4] = system: CAKI-1 renal
[5] = system: CCRF-CEM leukemia
[6] = system: COLO 205 colon
[7] = system: DU-145 prostate
[8] = system: EKVX NSCLC
[9] = system: HCC-2998 colon
[10] = system: HCT-15 colon
[11] = system: HOP-62 NSCLC
[12] = system: HOP-92 NSCLC
[13] = system: IGROV1 ovarian
[14] = system: K-562 leukemia
[15] = system: LOX IMVI melanoma
[16] = system: M14 melanoma
[17] = system: MALME-3M melanoma
[18] = system: MCF7 breast
[19] = system: MDA-MB-231 breast
[20] = system: MDA-MB-435
[21] = system: MOLT-4 leukemia
[22] = system: NCI-H23 lung
[23] = system: NCI-H522 lung
[24] = system: OVCAR-3 ovarian
[25] = system: OVCAR-4 ovarian
[26] = system: OVCAR-5 ovarian
[27] = system: OVCAR-8 ovarian
[28] = system: PC-3 prostate
[29] = system: RPMI-8226 leukemia
[30] = system: RXF 393 renal
[31] = system: SF-539 CNS
[32] = system: SK-MEL-2 melanoma
[33] = system: SK-MEL-28 melanoma
[34] = system: SK-MEL-5 melanoma
[35] = system: SK-OV-3 ovarian
[36] = system: SNB-19 CNS
[37] = system: T-47D breast
[38] = system: TK-10 renal
[39] = system: UACC-62 melanoma
[40] = system: 786-0 renal
[41] = system: ACHN renal
[42] = system: HCT-116 colon
[43] = system: HL-60(TB) leukemia
[44] = system: HS 578T breast
[45] = system: HT29 colon
[46] = system: KM12 colon
[47] = system: NCI-H226 lung
[48] = system: NCI-H460 lung
[49] = system: NCI/ADR-RES ovarian
[50] = system: SF-268 CNS
[51] = system: SF-295 CNS
[52] = system: SN12C renal
[53] = system: SNB-75 CNS
[54] = system: SR leukemia
[55] = system: SW-620 colon
[56] = system: U251 CNS
[57] = system: UACC-257 melanoma
[58] = system: UO-31 renal

Compound: O=C1c2cc3c(cc2-c2c1c1ccc(F)cc1c(=O)n2C[C@H](O)[C@@H](O)[C@H](O)CO)OCO3
- GI50 [1]: 120 nM
- TGI [1]: 262 nM
- GI50 [2]: 226 nM
- TGI [2]: > 100000 nM
- GI50 [3]: 68.7 nM
- TGI [3]: 492 nM
- GI50 [4]: 38.3 nM
- TGI [4]: 371 nM
- GI50 [5]: 34.4 nM
- TGI [5]: 2180 nM
- GI50 [6]: 106 nM
- TGI [6]: 546 nM
- GI50 [7]: 51.3 nM
- TGI [7]: 1990 nM
- GI50 [8]: 308 nM
- TGI [8]: 3050 nM
- GI50 [9]: 140 nM
- TGI [9]: 380 nM
- GI50 [10]: 183 nM
- TGI [10]: 766 nM
- GI50 [11]: 32.4 nM
- TGI [11]: 270 nM
- GI50 [12]: 180 nM
- TGI [12]: 690 nM
- GI50 [13]: 302 nM
- TGI [13]: > 100000 nM
- GI50 [14]: 64.5 nM
- TGI [14]: > 100000 nM
- GI50 [15]: 29.9 nM
- TGI [15]: 137 nM
- GI50 [16]: 44.3 nM
- TGI [16]: 599 nM
- GI50 [17]: 185 nM
- TGI [17]: 565 nM
- GI50 [18]: 11.9 nM
- TGI [18]: 151 nM
- GI50 [19]: 325 nM
- TGI [19]: 984 nM
- GI50 [20]: 112 nM
- TGI [20]: 279 nM
- GI50 [21]: 33.4 nM
- TGI [21]: 426 nM
- GI50 [22]: 46 nM
- TGI [22]: 256 nM
- GI50 [23]: 16.7 nM
- TGI [23]: 137 nM
- GI50 [24]: 98.9 nM
- TGI [24]: 476 nM
- GI50 [25]: 185 nM
- TGI [25]: 874 nM
- GI50 [26]: 222 nM
- TGI [26]: 782 nM
- GI50 [27]: 90.4 nM
- TGI [27]: > 100000 nM
- GI50 [28]: 205 nM
- TGI [28]: > 100000 nM
- GI50 [29]: 422 nM
- TGI [29]: 4180 nM
- GI50 [30]: 162 nM
- TGI [30]: 432 nM
- GI50 [31]: 28.9 nM
- TGI [31]: 138 nM
- GI50 [32]: 180 nM
- TGI [32]: 375 nM
- GI50 [33]: 195 nM
- TGI [33]: 765 nM
- GI50 [34]: 56.8 nM
- TGI [34]: 183 nM
- GI50 [35]: 32.4 nM
- TGI [35]: 220 nM
- GI50 [36]: 51.3 nM
- TGI [36]: 3010 nM
- GI50 [37]: 22.9 nM
- TGI [37]: 150 nM
- GI50 [38]: 262 nM
- TGI [38]: 858 nM
- GI50 [39]: 25 nM
- TGI [39]: 123 nM

Compound: CC1SC(c2ccc(F)cc2)N(NC(=O)C(O)c2ccccc2)C1=O (centres undefined)
- GI50 [40]: > 100000 nM
- TGI [40]: > 100000 nM
- GI50 [1]: > 100000 nM
- TGI [1]: > 100000 nM
- GI50 [2]: > 100000 nM
- TGI [2]: > 100000 nM
- GI50 [41]: > 100000 nM
- TGI [41]: > 100000 nM
- GI50 [3]: > 100000 nM
- TGI [3]: > 100000 nM
- GI50 [4]: > 100000 nM
- TGI [4]: > 100000 nM
- GI50 [5]: > 100000 nM
- TGI [5]: > 100000 nM
- GI50 [7]: > 100000 nM
- TGI [7]: > 100000 nM
- GI50 [8]: > 100000 nM
- TGI [8]: > 100000 nM
- GI50 [9]: > 100000 nM
- TGI [9]: > 100000 nM
- GI50 [42]: > 100000 nM
- TGI [42]: > 100000 nM
- GI50 [10]: > 100000 nM
- TGI [10]: > 100000 nM
- GI50 [43]: > 100000 nM
- TGI [43]: > 100000 nM
- GI50 [11]: > 100000 nM
- TGI [11]: > 100000 nM
- GI50 [12]: > 100000 nM
- TGI [12]: > 100000 nM
- GI50 [44]: > 100000 nM
- TGI [44]: > 100000 nM
- GI50 [45]: > 100000 nM
- TGI [45]: > 100000 nM
- GI50 [13]: > 100000 nM
- TGI [13]: > 100000 nM
- GI50 [14]: > 100000 nM
- TGI [14]: > 100000 nM
- GI50 [46]: > 100000 nM
- TGI [46]: > 100000 nM
- GI50 [15]: > 100000 nM
- TGI [15]: > 100000 nM
- GI50 [16]: > 100000 nM
- TGI [16]: > 100000 nM
- GI50 [18]: > 100000 nM
- TGI [18]: > 100000 nM
- GI50 [19]: > 100000 nM
- TGI [19]: > 100000 nM
- GI50 [20]: > 100000 nM
- TGI [20]: > 100000 nM
- GI50 [21]: > 100000 nM
- TGI [21]: > 100000 nM
- GI50 [47]: > 100000 nM
- TGI [47]: > 100000 nM
- GI50 [48]: > 100000 nM
- TGI [48]: > 100000 nM
- GI50 [23]: > 100000 nM
- TGI [23]: > 100000 nM
- GI50 [49]: > 100000 nM
- TGI [49]: > 100000 nM
- GI50 [24]: > 100000 nM
- TGI [24]: > 100000 nM
- GI50 [25]: > 100000 nM
- TGI [25]: > 100000 nM
- GI50 [26]: > 100000 nM
- TGI [26]: > 100000 nM
- GI50 [27]: > 100000 nM
- TGI [27]: > 100000 nM
- GI50 [28]: > 100000 nM
- TGI [28]: > 100000 nM
- GI50 [29]: > 100000 nM
- TGI [29]: > 100000 nM
- GI50 [30]: > 100000 nM
- TGI [30]: > 100000 nM
- GI50 [50]: > 100000 nM
- TGI [50]: > 100000 nM
- GI50 [51]: > 100000 nM
- TGI [51]: > 100000 nM
- GI50 [31]: > 100000 nM
- TGI [31]: > 100000 nM
- GI50 [32]: > 100000 nM
- TGI [32]: > 100000 nM
- GI50 [33]: > 100000 nM
- TGI [33]: > 100000 nM
- GI50 [34]: > 100000 nM
- TGI [34]: > 100000 nM
- GI50 [52]: > 100000 nM
- TGI [52]: > 100000 nM
- GI50 [36]: > 100000 nM
- TGI [36]: > 100000 nM
- GI50 [53]: > 100000 nM
- TGI [53]: > 100000 nM
- GI50 [54]: > 100000 nM
- TGI [54]: > 100000 nM
- GI50 [55]: > 100000 nM
- TGI [55]: > 100000 nM
- GI50 [38]: > 100000 nM
- TGI [38]: > 100000 nM
- GI50 [56]: > 100000 nM
- TGI [56]: > 100000 nM
- GI50 [57]: > 100000 nM
- TGI [57]: > 100000 nM
- GI50 [39]: > 100000 nM
- TGI [39]: > 100000 nM
- GI50 [58]: > 100000 nM
- TGI [58]: > 100000 nM
